Assay results as given in patent publication US20230167122A1, “PESTICIDALLY ACTIVE HETEROCYCLIC DERIVATIVES WITH SULFUR CONTAINING SUBSTITUENTS” (SYNGENTA CROP PROTECTION AG, priority 2020, published 2023).

Key:
Assay type in all cases: in vivo
[1] = test system: Myzus persicae (Green Peach Aphid); test: Example B7: Activity against Myzus persicae (green peach aphid), roots of pea seedlings in test solution; settings: 144 h, test rate of 24 ppm, roots of infested pea seedlings in test solution, 6 days
Protocol: Example B7: Activity Against Myzus persicae (Green Peach Aphid)
Roots of pea seedlings infested with an aphid population of mixed ages were placed directly in the aqueous test solutions prepared from 10′000 DMSO stock solutions. The samples were assessed for mortality 6 days after placing seedlings in test solutions.

[2] = test system: Spodoptera littoralis (Egyptian Cotton Leaf Worm); test: Example B9: Activity against Spodoptera littoralis (Egyptian cotton leaf worm), sprayed cotton leaf discs; settings: foliar, 72 h, application rate of 200 ppm, L1 larvae on cotton leaf discs, 3 days after infestation
Protocol: Example B9: Activity Against Spodoptera littoralis (Egyptian Cotton Leaf Worm)
Cotton leaf discs were placed onto agar in 24-well microtiter plates and sprayed with aqueous test solutions prepared from 10′000 ppm DMSO stock solutions. After drying the leaf discs were infested with five L1 larvae. The samples were assessed for mortality, anti-feeding effect, and growth inhibition in comparison to untreated samples 3 days after infestation. Control of Spodoptera littoralis by a test sample is given when at least one of the categories mortality, anti-feedant effect, and growth inhibition is higher than the untreated sample.

[3] = test system: Euschistus heros (Neotropical Brown Stink Bug); test: Example B3: Activity against Euschistus heros (neotropical brown stink bug), sprayed soybean leaf; settings: 120 h, application rate of 200 ppm, N-2 nymphs on soybean leaf, 5 days after infestation, read-out: effect in at least one of the two categories (mortality or growth inhibition)
Protocol: Example B3: Activity Against Euschistus heros (Neotropical Brown Stink Bug)
Soybean leaf on agar in 24-well microtiter plates were sprayed with aqueous test solutions prepared from 10′000 ppm DMSO stock solutions. After drying the leaf were infested with N-2 nymphs. The samples were assessed for mortality and growth inhibition in comparison to untreated samples 5 days after infestation.

[4] = test system: Nilaparvata lugens (Brown Plant Hopper); test: Example B12: Activity against Nilaparvata lugens (brown plant hopper), larvicide, systemic into water; settings: 168 h, application rate of 12.5 ppm, systemic into nutritive solution, rice plants, N3 nymphs, 7 days after infestation
Protocol: Example B12: Activity Against Nilaparvata lugens (Brown Plant Hopper) Larvicide, Systemic into Water
Rice plants cultivated in a nutritive solution were treated with the diluted test solutions into nourishing cultivation system. 1 day after application plants were infested with ˜20 N3 nymphs. 7 days after infestation samples were assessed for mortality and growth regulation.

[5] = test system: Plutella xylostella (Diamond Back Moth); test: Example B8: Activity against Plutella xylostella (diamond back moth), L2 larvae, artificial diet; settings: 120 h, application rate of 200 ppm, 5 days after infestation, read-out: effect in at least one of the two categories (mortality or growth inhibition)
Protocol: Example B8: Activity Against Plutella xylostella (Diamond Back Moth)
(§1) 24-well microtiter plates with artificial diet were treated with aqueous test solutions prepared from 10′000 ppm DMSO stock solutions by pipetting. After drying, the plates were infested with L2 larvae (10 to 15 per well). The samples were assessed for mortality and growth inhibition in comparison to untreated samples 5 days after infestation.

[6] = test system: Diabrotica balteata (Corn Root Worm); test: Example B2: Activity against Diabrotica balteata (corn root worm), sprayed maize sprouts; settings: 96 h, application rate of 200 ppm, L2 larvae on maize sprouts, 4 days after infestation, read-out: effect in at least one of the two categories (mortality or growth inhibition)
Protocol: Example B2: Activity Against Diabrotica balteata (Corn Root Worm)
as §1, with “Maize sprouts placed onto an agar layer in 24-well” for “24-well”, “plates” for “plates with artificial diet”, “spraying.” for “pipetting.”, “(6” for “(10”, “10” for “15”, “4” for “5”

[7] = test system: Bemisia tabaci (Cotton White Fly); test: Example B1: Activity against Bemisia tabaci (cotton white fly), sprayed cotton leaf discs; settings: foliar, 144 h, application rate of 200 ppm, adult white flies on cotton leaf discs, 6 days after incubation
Protocol: Example B1: Activity Against Bemisia tabaci (Cotton White Fly)
Cotton leaf discs were placed on agar in 24-well microtiter plates and sprayed with aqueous test solutions prepared from 10′000 ppm DMSO stock solutions. After drying the leaf discs were infested with adult white flies. The samples were checked for mortality 6 days after incubation.

[8] = test system: Myzus persicae (Green Peach Aphid); test: Example B6: Activity against Myzus persicae (green peach aphid), sprayed sunflower leaf discs; settings: foliar, 144 h, application rate of 200 ppm, aphid population of mixed ages on sunflower leaf discs, 6 days after infestation
Protocol: Example B6: Activity Against Myzus persicae (Green Peach Aphid)
Sunflower leaf discs were placed on agar in a 24-well microtiter plate and sprayed with aqueous test solutions prepared from 10′000 ppm DMSO stock solutions. After drying, the leaf discs were infested with an aphid population of mixed ages. The samples were assessed for mortality 6 days after infestation.

[9] = test system: Nilaparvata lugens (Brown Plant Hopper); test: Example B11: Activity against Nilaparvata lugens (brown plant hopper), larvicide, feeding/contact; settings: 168 h, application rate of 50 ppm, N3 nymphs on sprayed rice plants, 7 days after the treatment
Protocol: Example B11: Activity Against Nilaparvata lugens (Brown Plant Hopper) Larvicide, Feeding/Contact
Rice plants were treated with the diluted test solutions in a spray chamber. After drying plants were infested with ˜20 N3 nymphs. 7 days after the treatment samples were assessed for mortality and growth regulation.

[10] = test system: Tetranychus urticae (Two-Spotted Spider Mite); test: Example B10: Activity against Tetranychus urticae (two-spotted spider mite), sprayed bean leaf discs; settings: foliar, 192 h, application rate of 200 ppm, mixed population (mobile stages) on bean leaf discs, 8 days after infestation
Protocol: Example B10: Activity Against Tetranychus urticae (Two-Spotted Spider Mite)
Bean leaf discs on agar in 24-well microtiter plates were sprayed with aqueous test solutions prepared from 10′000 ppm DMSO stock solutions. After drying the leaf discs were infested with a mite population of mixed ages. The samples were assessed for mortality on mixed population (mobile stages) 8 days after infestation.

[11] = test system: Carpocapsa (Cydia) pomonella (Codling Moth); test: Example B15: Activity against Carpocapsa (Cydia) pomonella (codling moth), larvicide, feeding/contact; settings: 336 h, application rate of 12.5 ppm, L1 larvae on sprayed diet cubes, 14 days after infestation, read-out: effect in at least one of the two categories (mortality or growth inhibition)
Protocol: Example B15: Activity Against Carpocapsa (Cydia) pomonella (Codling Moth), Larvicide, Feeding/Contact
Diet cubes coated with paraffin were sprayed with diluted test solutions in an application chamber. After drying off the treated cubes (10 replicates) were infested with 1 L1 larvae. Samples were incubated at 26-27° C. and checked 14 days after infestation for mortality and growth inhibition.

[12] = test system: Plutella xylostella (Diamond Back Moth); test: Example B5: Activity against Plutella xylostella (diamond back moth), eggs, artificial diet; settings: 192 h, application rate of 200 ppm, 8 days after infestation, read-out: effect in at least one of the two categories (mortality or growth inhibition)
Protocol: Example B5: Activity Against Plutella xylostella (Diamond Back Moth)
as §1, with “drying, Plutella eggs were pipetted through a plastic stencil onto a gel blotting paper and” for “drying,”, “plate was closed” for “plates were infested”, “it.” for “L2 larvae (10 to 15 per well).”, “8” for “5”

CCS(=O)(=O)c1cc(OC(C)(C)C#N)cnc1-c1nc2cc(C(F)(F)F)nnc2n1C [Compound P2, 2-[[5-ethylsulfonyl-6-[7-methyl-3-(trifluoromethyl)imidazo[4,5-c]pyridazin-6-yl]-3-pyridyl]oxy]-2-methyl-propanenitrile]
≥ 80%: mortality at 24 ppm [1] | percent control (mortality, anti-feedant effect or growth inhibition) at 200 ppm [2] | percent effect (mortality or growth inhibition) at 200 ppm [3] | mortality at 12.5 ppm [4] | percent effect (mortality or growth inhibition) at 200 ppm [5] | percent effect (mortality or growth inhibition) at 200 ppm [6] | mortality at 200 ppm [7] | mortality at 200 ppm [8] | mortality at 50 ppm [9]

CCS(=O)(=O)c1cc(OC(C)(C)C#N)c(C)nc1-c1nc2cc(C(F)(F)F)cnc2n1C [Compound P4, 2-[[5-ethylsulfonyl-2-methyl-6-[3-methyl-6-(trifluoromethyl)imidazo[4,5-b]pyridin-2-yl]-3-pyridyl]oxy]-2-methyl-propanenitrile]
≥ 80%: percent control (mortality, anti-feedant effect or growth inhibition) at 200 ppm [2] | percent effect (mortality or growth inhibition) at 200 ppm [3] | mortality at 12.5 ppm [4] | percent effect (mortality or growth inhibition) at 200 ppm [5] | mortality at 200 ppm [10] | percent effect (mortality or growth inhibition) at 200 ppm [6] | mortality at 200 ppm [7] | mortality at 200 ppm [8] | percent effect (mortality or growth inhibition) at 12.5 ppm [11]

CCS(=O)(=O)c1cc(OC(C)(C)C#N)cnc1-c1nc2cc(C(F)(F)F)n(OC)c(=O)c2n1C [Compound P5, 2-[[5-ethylsulfonyl-6-[5-methoxy-3-methyl-4-oxo-6-(trifluoromethyl)imidazo[4,5-c]pyridin-2-yl]-3-pyridyl]oxy]-2-methyl-propanenitrile]
≥ 80%: mortality at 24 ppm [1] | percent control (mortality, anti-feedant effect or growth inhibition) at 200 ppm [2] | percent effect (mortality or growth inhibition) at 200 ppm [3] | mortality at 12.5 ppm [4] | percent effect (mortality or growth inhibition) at 200 ppm [5] | mortality at 200 ppm [10] | percent effect (mortality or growth inhibition) at 200 ppm [6] | mortality at 200 ppm [7] | mortality at 200 ppm [8] | percent effect (mortality or growth inhibition) at 12.5 ppm [11]

CCS(=O)(=O)c1cc(OC(C)(C)C#N)c(C)nc1-c1nc2cc(C(F)(F)F)nnc2n1C [Compound P11, 2-[[5-ethylsulfonyl-2-methyl-6-[7-methyl-3-(trifluoromethyl)imidazo[4,5-c]pyridazin-6-yl]-3-pyridyl]oxy]-2-methyl-propanenitrile]
≥ 80%: mortality at 24 ppm [1] | percent control (mortality, anti-feedant effect or growth inhibition) at 200 ppm [2] | percent effect (mortality or growth inhibition) at 200 ppm [3] | mortality at 12.5 ppm [4] | percent effect (mortality or growth inhibition) at 200 ppm [5] | percent effect (mortality or growth inhibition) at 200 ppm [6] | mortality at 200 ppm [7] | mortality at 200 ppm [8] | percent effect (mortality or growth inhibition) at 12.5 ppm [11] | mortality at 50 ppm [9]

CCS(=O)(=O)c1cc(OC(C)(C)C#N)cnc1-c1nc2cc3c(cc2n1C)OC(F)(F)O3 [Compound P15, 2-[[6-(2,2-difluoro-7-methyl-[1,3]dioxolo[4,5-f]benzimidazol-6-yl)-5-ethylsulfonyl-3-pyridyl]oxy]-2-methyl-propanenitrile]
≥ 80%: percent control (mortality, anti-feedant effect or growth inhibition) at 200 ppm [2] | percent effect (mortality or growth inhibition) at 200 ppm [3] | percent effect (mortality or growth inhibition) at 200 ppm [12] | percent effect (mortality or growth inhibition) at 200 ppm [6] | mortality at 200 ppm [7] | mortality at 200 ppm [8] | percent effect (mortality or growth inhibition) at 12.5 ppm [11]

CCS(=O)(=O)c1cc(OC(C)(C)C#N)cnc1-c1nc2cc3c(cc2o1)OC(F)(F)O3 [Compound P16, 2-[[6-(2,2-difluoro-[1,3]dioxolo[4,5-f][1,3]benzoxazol-6-yl)-5-ethylsulfonyl-3-pyridyl]oxy]-2-methyl-propanenitrile]
≥ 80%: percent control (mortality, anti-feedant effect or growth inhibition) at 200 ppm [2] | percent effect (mortality or growth inhibition) at 200 ppm [3] | percent effect (mortality or growth inhibition) at 200 ppm [12] | percent effect (mortality or growth inhibition) at 200 ppm [6] | mortality at 200 ppm [8] | percent effect (mortality or growth inhibition) at 12.5 ppm [11]
